Results as given in patent publication US8916702B2 (priority 2012, dated 2014).

test system: HCV pseudoparticles (genotype 1a HCV E1 and E2 envelope, H77C isolate); experiment: microbe, parasite or virus in culture; type: cell-based; conditions: Hepatitis C virus, Huh-7, 48 h, HCV pseudoparticle infection of Huh7 cells, luciferase 2 days after infection; average of duplicates

| Structure (SMILES) | EC50 |
| --- | --- |
| O=C(NCc1cc(F)cc(F)c1)C(=O)NC[C@H](NC(=O)c1ccc(Nc2nc(NC3(c4ccc(Cl)cc4)CC3)nc(OCC(F)(F)F)n2)cc1)C(=O)O [Compound 1173] | 0.74 nM |
| COC(=O)[C@H](CNC(=O)C(=O)NC(C1CC1)C1CC1)NC(=O)c1ccc(Nc2nc(NC3(c4ccc(Cl)cc4)CC3)nc(OCC(F)(F)F)n2)cc1 [Compound 1055] | 2.41 nM |
| O=C(NCC[C@H](NC(=O)c1ccc(Nc2nc(NC3(c4ccc(Cl)cc4)CC3)nc(OCC(F)(F)F)n2)cc1)C(=O)O)C(=O)Nc1ccccn1 [Compound 1279] | 1.29 nM |
| COC(=O)[C@H](CCNC(=O)C(=O)NC1Cc2ccccc2C1)NC(=O)c1ccc(Nc2nc(NC3(c4ccc(Cl)cc4)CC3)nc(OCC(F)(F)F)n2)cc1 [Compound 1314] | 0.43 nM |
| Cc1ccc(CNC(=O)C(=O)NCC[C@H](NC(=O)c2ccc(Nc3nc(NC4(c5ccc(Cl)cc5)CC4)nc(OCC(F)(F)F)n3)cc2)C(=O)O)cc1F [Compound 1191] | 0.17 nM |

same assay, conditions: Hepatitis C virus, Huh-7, 48 h, HCV pseudoparticles (genotype 1a, H77C) in Huh7 cells; average of duplicate; luciferase 2 days after infection

| Structure (SMILES) | EC50 |
| --- | --- |
| Cc1cc(NC(=O)C(=O)NCC(C)CNC(=O)c2ccc(Nc3nc(NC4(c5ccc(Cl)cc5)CC4)nc(OCC(F)(F)F)n3)cc2)no1 (stereo not drawn) [Compound 3334] | 0.062 nM |

same assay, conditions: Hepatitis C virus, Huh-7, 48 h, HCV pseudoparticles, Huh7 cells, luciferase 2 days after infection; average of duplicates

| Structure (SMILES) | EC50 |
| --- | --- |
| CC(C)(CNC(=O)C(=O)Nc1nc2c(F)cccc2s1)CNC(=O)c1ccc(Nc2nc(NC3(c4ccc(Cl)cc4)CC3)nc(OCC(F)(F)F)n2)cc1 [Compound 3824] | 0.077 nM |

same assay, conditions: Hepatitis C virus, Huh-7, 48 h, read-out: Activity (EC50 class), HCV pseudoparticle infection of Huh7 cells, luciferase 2 days after infection; EC50 expressed as class A/B

| Structure (SMILES) | EC50 |
| --- | --- |
| COC(=O)[C@@H](CCNC(=O)C(=O)NCC1CC1c1cccc(OC)c1)NC(=O)c1ccc(Nc2nc(NC3(c4ccc(Cl)cc4)CC3)nc(OCC(F)(F)F)n2)cc1 (stereo partly drawn) [Compound 1416] | 0.01 to 10 nM |
| O=C(NCC[C@H](NC(=O)c1ccc(Nc2nc(NC3(c4ccc(Cl)cc4)CC3)nc(OCC(F)(F)F)n2)cc1)C(=O)O)C(=O)NC(CCO)C1CC1 (stereo partly drawn) [Compound 1439] | 0.01 to 10 nM |
| O=C(NCc1cc(F)cc(F)c1)C(=O)NC[C@H](NC(=O)c1ccc(Nc2nc(NC3(c4ccc(Cl)cc4)CC3)nc(OCC(F)(F)F)n2)cc1)C(=O)O [Compound 1173] | 0.01 to 10 nM |
| COC(=O)[C@H](CNC(=O)C(=O)NC(C1CC1)C1CC1)NC(=O)c1ccc(Nc2nc(NC3(c4ccc(Cl)cc4)CC3)nc(OCC(F)(F)F)n2)cc1 [Compound 1055] | 0.01 to 10 nM |
| COC(=O)[C@H](CCNC(=O)C(=O)Nc1ccc(Cl)cc1)NC(=O)c1ccc(Nc2nc(NC3(c4ccc(Cl)cc4)CC3)nc(OCC(F)(F)F)n2)cc1 [Compound 1515] | 0.01 to 10 nM |
| O=C(NCC[C@@H](NC(=O)c1ccc(Nc2nc(NC3(c4ccc(Cl)cc4)CC3)nc(OCC(F)(F)F)n2)cc1)C(=O)O)C(=O)Nc1cccc(F)c1F [Compound 1530] | 0.01 to 10 nM |
| O=C(NCC[C@H](NC(=O)c1ccc(Nc2nc(NC3(c4ccc(Cl)cc4)CC3)nc(OCC(F)(F)F)n2)cc1)C(=O)O)C(=O)Nc1ccccn1 [Compound 1279] | 0.01 to 10 nM |
| COc1cccc(CNC(=O)C(=O)NCC[C@H](NC(=O)c2ccc(Nc3nc(NC4(c5ccc(Cl)cc5)CC4)nc(OCC(F)(F)F)n3)cc2)C(=O)O)c1 [Compound 1183] | 0.01 to 10 nM |
| COC(=O)[C@H](CCNC(=O)C(=O)NC1Cc2ccccc2C1)NC(=O)c1ccc(Nc2nc(NC3(c4ccc(Cl)cc4)CC3)nc(OCC(F)(F)F)n2)cc1 [Compound 1314] | 0.01 to 10 nM |
| Cc1ccc(CNC(=O)C(=O)NCC[C@H](NC(=O)c2ccc(Nc3nc(NC4(c5ccc(Cl)cc5)CC4)nc(OCC(F)(F)F)n3)cc2)C(=O)O)c(F)c1 [Compound 1188] | 0.01 to 10 nM |
| O=C(NCC[C@H](NC(=O)c1ccc(Nc2nc(NC3(c4ccc(Cl)cc4)CC3)nc(OCC(F)(F)F)n2)cc1)C(=O)O)C(=O)NCC1CC1c1cccc(F)c1 (stereo partly drawn) [Compound 1448] | 0.01 to 10 nM |
| CC1CCCCC1NC(=O)C(=O)NCC[C@H](NC(=O)c1ccc(Nc2nc(NC3(c4ccc(Cl)cc4)CC3)nc(OCC(F)(F)F)n2)cc1)C(=O)O (stereo partly drawn) [Compound 1124] | 0.01 to 10 nM |
| Cc1ccc(NC(=O)C(=O)NCC(C)(C)CNC(=O)c2ccc(Nc3nc(NC4(c5ccc(Cl)cc5)CC4)nc(OCC(F)(F)F)n3)cc2)cc1 [Compound 1536] | 0.01 to 10 nM |
| O=C(NCC[C@H](NC(=O)c1ccc(Nc2nc(NC3(c4ccc(Cl)cc4)CC3)nc(OCC(F)(F)F)n2)cc1)C(=O)O)C(=O)NCC1CCCCC1 [Compound 1181] | 0.01 to 10 nM |
| Cc1ccc(CNC(=O)C(=O)NCC[C@H](NC(=O)c2ccc(Nc3nc(NC4(c5ccc(Cl)cc5)CC4)nc(OCC(F)(F)F)n3)cc2)C(=O)O)cc1F [Compound 1191] | 0.01 to 10 nM |
| O=C(NCC[C@H](NC(=O)c1ccc(Nc2nc(NC3(c4ccc(Cl)cc4)CC3)nc(OCC(F)(F)F)n2)cc1)C(=O)O)C(=O)NCC1CC1(Cl)Cl (stereo partly drawn) [Compound 1445] | 0.01 to 10 nM |
| COC(=O)[C@H](CCNC(=O)C(=O)NCc1ccc(OC)c(OC)c1)NC(=O)c1ccc(Nc2nc(NC3(c4ccc(Cl)cc4)CC3)nc(OCC(F)(F)F)n2)cc1 [Compound 1144] | 0.01 to 10 nM |
| COC(=O)[C@H](CCNC(=O)C(=O)NCC(C)(C)C)NC(=O)c1ccc(Nc2nc(NC3(c4ccc(Cl)cc4)CC3)nc(OCC(F)(F)F)n2)cc1 [Compound 1195] | 0.01 to 10 nM |
| COC(=O)[C@@H](CCNC(=O)C(=O)Nc1ccccc1-c1ccccc1)NC(=O)c1ccc(Nc2nc(NC3(c4ccc(Cl)cc4)CC3)nc(OCC(F)(F)F)n2)cc1 [Compound 1528] | 0.01 to 10 nM |

same assay, conditions: Hepatitis C virus, Huh-7, 48 h, read-out: Activity (EC50 class), HCV pseudoparticles, Huh7 cells, luciferase 2 days after infection; average of duplicates

| Structure (SMILES) | EC50 |
| --- | --- |
| COC(=O)[C@H](CCNC(=O)C(=O)Nc1cccc(-c2cccnc2)c1)NC(=O)c1ccc(Nc2nc(NC3(c4ccc(Cl)cc4)CC3)nc(OCC(F)(F)F)n2)cc1 [Compound 3604] | 0.01 to 10 nM |
| COC(=O)[C@H](CNC(=O)C(=O)Nc1cccc(OCc2ccccc2)c1)NC(=O)c1ccc(Nc2nc(NC3(c4ccc(Cl)cc4)CC3)nc(OCC(F)(F)F)n2)cc1 [Compound 3686] | 0.01 to 10 nM |
| Cc1cc(NC(=O)C(=O)NCC(C)(C)CNC(=O)c2ccc(Nc3nc(NC4(c5ccc(Cl)cc5)CC4)nc(OCC(F)(F)F)n3)cc2)[nH]n1 [Compound 3673] | 0.01 to 10 nM |
| COc1ccc(CN(CC(C)(O)CNC(=O)c2ccc(Nc3nc(NC4(c5ccc(Cl)cc5)CC4)nc(OCC(F)(F)F)n3)cc2)C(=O)C(=O)Nc2ccc(C)cc2)c(OC)c1 (stereo not drawn) [Compound 3833] | 0.01 to 10 nM |
| CC(C)(CNC(=O)C(=O)Nc1nc2c(F)cccc2s1)CNC(=O)c1ccc(Nc2nc(NC3(c4ccc(Cl)cc4)CC3)nc(OCC(F)(F)F)n2)cc1 [Compound 3824] | 0.01 to 10 nM |
| C=Cc1cccc(NC(=O)C(=O)NC[C@H](NC(=O)c2ccc(Nc3nc(NC4(c5ccc(Cl)cc5)CC4)nc(OCC(F)(F)F)n3)cc2)C(=O)OC)c1 [Compound 3690] | 0.01 to 10 nM |
| COC(=O)[C@H](CCNC(=O)C(=O)Nc1cccc(-n2ccnc2)c1)NC(=O)c1ccc(Nc2nc(NC3(c4ccc(Cl)cc4)CC3)nc(OCC(F)(F)F)n2)cc1 [Compound 3610] | 0.01 to 10 nM |

same assay, conditions: Hepatitis C virus, Huh-7, read-out: Activity (EC50 class), HCV pseudoparticles (genotype 1a, H77C) in Huh7 cells; EC50 expressed as class A/B

| Structure (SMILES) | EC50 |
| --- | --- |
| COC(=O)[C@H](CCNC(=O)C(=O)Nc1ccc(-n2ccc(C(F)(F)F)n2)cc1)NC(=O)c1ccc(Nc2nc(NC3(c4ccc(Cl)cc4)CC3)nc(OCC(F)(F)F)n2)cc1 [Compound 3127] | 0.01 to 10 nM |
| COC(=O)[C@H](CNC(=O)C(=O)Nc1ccc(N2CCOCC2)cc1)NC(=O)c1ccc(Nc2nc(NC3(c4ccc(Cl)cc4)CC3)nc(OCC(F)(F)F)n2)cc1 [Compound 3080] | 0.01 to 10 nM |
| O=C(NCCCNC(=O)c1ccc(Nc2nc(NC3(c4ccc(Cl)cc4)CC3)nc(OCC(F)(F)F)n2)cc1)C(=O)Nc1ccc(F)cc1 [Compound 3360] | 0.01 to 10 nM |
| COc1cc(C)ccc1NC(=O)C(=O)NCC(C)(C)CNC(=O)c1ccc(Nc2nc(NC3(c4ccc(Cl)cc4)CC3)nc(OCC(F)(F)F)n2)cc1 [Compound 3070] | 0.01 to 10 nM |
| Cc1nc(C(F)(F)F)ccc1NC(=O)C(=O)NCC(C)(C)CNC(=O)c1ccc(Nc2nc(NC3(c4ccc(Cl)cc4)CC3)nc(OCC(F)(F)F)n2)cc1 [Compound 3249] | 0.01 to 10 nM |
| COC(=O)[C@H](CCNC(=O)C(=O)Nc1ccc(N2CCCC2=O)cc1)NC(=O)c1ccc(Nc2nc(NC3(c4ccc(Cl)cc4)CC3)nc(OCC(F)(F)F)n2)cc1 [Compound 3126] | 0.01 to 10 nM |
| Cc1cc(NC(=O)C(=O)NCC(C)CNC(=O)c2ccc(Nc3nc(NC4(c5ccc(Cl)cc5)CC4)nc(OCC(F)(F)F)n3)cc2)no1 (stereo not drawn) [Compound 3334] | 0.01 to 10 nM |
| CCc1ccc(NC(=O)C(=O)NCC[C@H](NC(=O)c2ccc(Nc3nc(NC4(c5ccc(Cl)cc5)CC4)nc(OCC(F)(F)F)n3)cc2)C(=O)O)cc1 [Compound 3551] | 0.01 to 10 nM |
| COC(=O)[C@H](CCNC(=O)C(=O)Nc1ccc(N(C)c2nc(C)cc(C)n2)cc1)NC(=O)c1ccc(Nc2nc(NC3(c4ccc(Cl)cc4)CC3)nc(OCC(F)(F)F)n2)cc1 [Compound 3133] | 0.01 to 10 nM |
| COC(=O)[C@H](CNC(=O)C(=O)Nc1ccc(Cn2ccnc2C)cc1)NC(=O)c1ccc(Nc2nc(NC3(c4ccc(Cl)cc4)CC3)nc(OCC(F)(F)F)n2)cc1 [Compound 3204] | 0.01 to 10 nM |
| COC(=O)[C@@H](CCNC(=O)C(=O)Nc1ccc(Oc2ccc(C(C)(C)C)cc2)nc1)NC(=O)c1ccc(Nc2nc(NC3(c4ccc(Cl)cc4)CC3)nc(OCC(F)(F)F)n2)cc1 [Compound 3581] | 0.01 to 10 nM |
| O=C(NC/C(=N/C(=O)c1ccc(Nc2nc(NC3(c4ccc(Cl)cc4)CC3)nc(OCC(F)(F)F)n2)cc1)C(=O)O)C(=O)Nc1ccc(-n2cncn2)cc1 [Compound 3168] | 0.01 to 10 nM |
| COC(=O)/C(CCNC(=O)C(=O)Nc1cccc(S(=O)(=O)C(F)(F)F)c1)=N\C(=O)c1ccc(Nc2nc(NC3(c4ccc(Cl)cc4)CC3)nc(OCC(F)(F)F)n2)cc1 [Compound 3589] | 0.01 to 10 nM |
| COc1cc(OC)nc(-c2ccc(NC(=O)C(=O)NC[C@H](NC(=O)c3ccc(Nc4nc(NC5(c6ccc(Cl)cc6)CC5)nc(OCC(F)(F)F)n4)cc3)C(=O)O)cc2)n1 [Compound 3270] | 0.01 to 10 nM |
| CC(C)(CNC(=O)C(=O)Nc1ccc(C(F)(F)F)cc1C#N)CNC(=O)c1ccc(Nc2nc(NC3(c4ccc(Cl)cc4)CC3)nc(OCC(F)(F)F)n2)cc1 [Compound 3435] | 0.01 to 10 nM |
| CC(C)(CNC(=O)C(=O)Nn1cnnc1)CNC(=O)c1ccc(Nc2nc(NC3(c4ccc(Cl)cc4)CC3)nc(OCC(F)(F)F)n2)cc1 [Compound 3253] | 0.01 to 10 nM |
| CN(CCCN(C)C(=O)c1ccc(Nc2nc(NC3(c4ccc(Cl)cc4)CC3)nc(OCC(F)(F)F)n2)cc1)C(=O)C(=O)Nc1cc(F)cc(F)c1 [Compound 3427] | 0.01 to 10 nM |
| COC(=O)/C(CCNC(=O)C(=O)NC1CCCC(S(=O)(=O)c2ccccc2)C1)=N\C(=O)c1ccc(Nc2nc(NC3(c4ccc(Cl)cc4)CC3)nc(OCC(F)(F)F)n2)cc1 (stereo not drawn) [Compound 3584] | 10 to 1000 nM |
| CC(C)(CNC(=O)C(=O)Nc1ccc(C(F)(F)F)cc1)CNC(=O)c1ccc(Nc2nc(NC3(c4ccc(Cl)cc4)CC3)nc(OCC(F)(F)F)n2)cc1 [Compound 3011] | 0.01 to 10 nM |
| Cc1nnnn1-c1cc(Nc2nc(NC3(c4ccc(Cl)cc4)CC3)nc(OCC(F)(F)F)n2)ccc1C(=O)NCC(C)(C)CNC(=O)C(N)=O [Compound 3519] | 0.01 to 10 nM |
| CC(C)(CNC(=O)C(=O)Nc1ccccc1-c1cc2ccccc2[nH]1)CNC(=O)c1ccc(Nc2nc(NC3(c4ccc(Cl)cc4)CC3)nc(OCC(F)(F)F)n2)cc1 [Compound 3052] | 0.01 to 10 nM |
